Test system: VSV-specific neutralizing antibodies
Assay type: in vivo, mice
Conditions: for VSV antigen-specific neutralizing antibody titers: free bisphosphonate 2 mg footpad days -3 and -1, live VSV Indiana 10^4 pfu, serum day 8, vs control mice (FIG. 6); for antigen-specific antibody titers / increase in adaptive immune responses following immunization: mouse, in vivo

## NCCCC(O)(P(=O)(O)O)P(=O)(O)O [alendronate]
  VSV antigen-specific neutralizing antibody titers: increased

## CC(O)(P(=O)(O)O)P(=O)(O)O [etidronate]
  VSV antigen-specific neutralizing antibody titers: increased

## NCCC(O)(P(=O)(O)O)P(=O)(O)O [pamidronate]
  VSV antigen-specific neutralizing antibody titers: increased

## carrageenan
  antigen-specific antibody titers: did not increase
  increase in adaptive immune responses following immunization: failed to induce an increase

## dextran sulfate
  antigen-specific antibody titers: did not increase
  increase in adaptive immune responses following immunization: failed to induce an increase

Source: patent US10188733B2 (priority 2010, dated 2019)
